Measured values reported in patent publication US10914725B2, “Culture medium additive, culture medium composition, and method for culturing cells or tissue using same” (NISSAN CHEMICAL INDUSTRIES, LTD., priority 2015, dated 2021).

Columns and labels:
[1] = system: adenocarcinomic human alveolar basal epithelial cell line A549; assay: CellTiter-Glo cell survival assay of paclitaxel (Experimental Example 5); format: cell-based; conditions: for IC50: Homo sapiens, A549, cell survival assay by fluorescence, read-out: paclitaxel 50% inhibitory concentration; for relative cell number (no anticancer agent = 1): 10 days
Method: As a negative control, a medium composition containing 10 (v/v) % FBS alone in DMEM (manufactured by Wako Pure Chemical Industries, Ltd.) was prepared. As a comparison control, in the same manner as in Experimental Example 3, a medium composition containing 10 (v/v) % FBS and 0.015 (w/v) % of deacylated gellan gum in DMEM (manufactured by Wako Pure Chemical Industries, Ltd.) was prepared. Paclitaxel was also added at the above-mentioned concentration to the negative control and comparison control medium compositions, A549 cells were suspended therein and the suspensions were dispensed. Successively, the plate was cultured in a standing state in a CO2 incubator (37° C., 5% CO2) for 10 days.
CellTiter-Glo Luminescent Cell Viability Assay (manufactured by Promega) (100 μL) was added to each cell culture medium of the negative control and comparison control, the mixture was stood for 10 min at room temperature, and the amount of luminescence was measured by a microplate reader (“FlexStation 3”, manufactured by Molecular Devices) and according to the protocol recommended by Promega. The amount of luminescence of the medium alone was subtracted, whereby the number of viable cells was measured. In addition, 50% inhibitory concentration (nM) of paclitaxel by the amount of luminescence was calculated with the number of viable cells when paclitaxel was not added as 0% inhibition rate.

[2] = system: adenocarcinomic human alveolar basal epithelial cell line A549; assay: High content analysis of anticancer agents by cell image analysis (Experimental Example 8); format: cell-based; conditions: for average cell number per sphere / average dead cell number in sphere / average sphere number per 20 mm^2 / projected area: 0.03 (w/v)% low-molecular agar medium, 7 days with agent;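 as to projected area: Projected area in square micrometres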
Method: Adenocarcinomic human alveolar basal epithelial cell line A549 (manufactured by DS PHARMA BIOMEDICAL CO., LTD.) was suspended in the above-mentioned medium composition containing low-molecular agar at 11,000 cells/mL. […] The plate was stood in a CO2 incubator (37° C., 5% CO2) overnight. The next day, paclitaxel (manufactured by Wako Pure Chemical Industries, Ltd.) and trametinib (manufactured by SANTA CRUZ) were further added by 10 μl per 1 well at a final concentration of 0.001 μM, 0.01 μM and 0.1 μM, respectively, mitomycin C (manufactured by Wako Pure Chemical Industries, Ltd.) at a final concentration of 0.005 μM, 0.05 μM and 0.5 μM, and MK2206 (manufactured by SANTA CRUZ) at a final concentration of 0.001 μM, 0.01 μM, 0.1 μM and 1 μM. Successively, the plate was further cultured in a standing state in a CO2 incubator (37° C., 5% CO2) for 7 days.
Successively, a solution of 20 μg/mL Propidium Iodide (manufactured by BIOMOL) in DMEM (phenol red, L-glutamine free) (manufactured by Wako Pure Chemical Industries, Ltd.) was prepared and added at 10 μL per 1 well, and the culture medium was suspended. The plate was centrifuged at 1,500 rpm for 1 min, and high content analysis was performed by cell image analysis using a cell imaging apparatus (“ArrayScan VTI HCS Reader”, manufactured by Thermo Fisher Scientific). At that time, observation was performed with 20 fields of view per well using a ×10 objective lens, cell outline and cell nucleus were detected from Hoechst33342 fluorescence image, and dead cells were detected from propidium iodide fluorescence image. In addition, 50% inhibitory concentration (nM) of each anticancer agent by high content analysis was calculated from the number of spheres constituted of not less than 5 cells. In this case, the value without addition of the anticancer agent was taken as 0% sphere formation inhibitory rate.

CC(=O)O[C@H]1C(=O)[C@@]2(C)[C@H]([C@H](OC(=O)c3ccccc3)[C@]3(O)C[C@H](OC(=O)[C@H](O)[C@@H](NC(=O)c4ccccc4)c4ccccc4)C(C)=C1C3(C)C)[C@]1(OC(C)=O)CO[C@@H]1C[C@@H]2O [paclitaxel, Paclitaxel]
IC50 ([1]; comparison control medium (0.015 (w/v)% deacylated gellan gum)): 2.9 nM
IC50 ([1]; negative control medium (DMEM, 10% FBS alone)): 4.4 nM
relative cell number (no anticancer agent = 1) ([1]; paclitaxel 0.001 μM, comparison control medium (0.015 (w/v)% deacylated gellan gum)): 0.842
relative cell number (no anticancer agent = 1) ([1]; paclitaxel 0.001 μM, negative control medium (DMEM, 10% FBS alone)): 1.004
relative cell number (no anticancer agent = 1) ([1]; paclitaxel 0.01 μM, comparison control medium (0.015 (w/v)% deacylated gellan gum)): 0.156
relative cell number (no anticancer agent = 1) ([1]; paclitaxel 0.01 μM, negative control medium (DMEM, 10% FBS alone)): 0.249
IC50 ([2]; Homo sapiens, A549, high content analysis by cell image analysis, number of spheres of not less than 5 cells, low-molecular agar-containing medium, read-out: 50% inhibitory concentration): 4.1 nM
average cell number per sphere ([2]; agent 0.001 μM): 4.817
average dead cell number in sphere ([2]; agent 0.001 μM): 0.064
average sphere number per 20 mm^2 ([2]; agent 0.001 μM): 297.7
projected area ([2]; agent 0.001 μM): 1271 μm^2
average cell number per sphere ([2]; agent 0.01 μM): 2.3
average dead cell number in sphere ([2]; agent 0.01 μM): 0.336
average sphere number per 20 mm^2 ([2]; agent 0.01 μM): 187
projected area ([2]; agent 0.01 μM): 797 μm^2
average cell number per sphere ([2]; agent 0.1 μM): 1.662
average dead cell number in sphere ([2]; agent 0.1 μM): 0.591
average sphere number per 20 mm^2 ([2]; agent 0.1 μM): 133
projected area ([2]; agent 0.1 μM): 647 μm^2
